# Values of other authors, collected in patent US5091169A, “Dipyridoxyl phosphate NMRI contrast agent compositions” (priority 1989, dated 1992).
# Conditions: cited from earlier work
Compound,"stability of manganese(II) complex (above pH 5, Frost et al)","log Kf (formation constant) (manganese chelate, reported by L'Eplathenier et al)"
O=C([O-])C(NCCNC(C(=O)[O-])c1ccccc1O)c1ccccc1O.[Mn+2] (centres unmarked) [Mn(II) chelates of EHPG],irreversibly oxidized,
"O=C([O-])CN(CCN(CC(=O)[O-])Cc1ccccc1O)Cc1ccccc1O.[Mn+2] [manganese chelate of N,N'-bis(2-hydroxybenzyl)ethylenediamine-N,N'-diacetic acid]",,14.8
